Measurements as given in US20260209249A1, “NOVEL TRICYCLIC COMPOUND AS KRAS G12D INHIBITOR, AND USE THEREOF” (SK Biopharmaceuticals Co., priority 2022, published 2026).

Columns and labels:
[1] = target: T1, GDP-KRAS G12D mutant protein (Homo sapiens, UniProt P01116, G12D); assay: Differential scanning fluorimetry (DSF) binding affinity to GDP-KRAS G12D mutant protein; details: DSF thermal shift, 10 μM compound, 4 μg KRAS protein
T1 construct: purchased Daegu Gyeongbuk Medical Innovation Foundation (DGMIF), made to order
Method in brief: (§1)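 Each sample held 4 μg recombinant KRAS G12D (GDP- or GppNHp-bound) and 10 μM compound, incubated 30 min at room temperature before adding 2× SYPRO Orange. The GDP form was run in kit buffer, the GppNHp form in 50 mM HEPES pH 7.5. Melt was 25–99 °C at 0.05 °C/s (580/623 nm), reported as ΔTm versus no compound.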

[2] = target: T2, GppNHp-KRAS G12D mutant protein (Homo sapiens, UniProt P01116, G12D); assay: Differential scanning fluorimetry (DSF) binding affinity to GppNHp-KRAS G12D mutant protein; details: DSF thermal shift, 10 μM compound, 4 μg KRAS protein, 50 mM HEPES (pH 7.5)
T2 construct: purchased Daegu Gyeongbuk Medical Innovation Foundation (DGMIF), made to order
Method in brief: as §1

[3] = system: ERK phosphorylation (pERK) induced by KRAS G12D mutation; assay: Inhibitory activity against ERK phosphorylation (pERK) induced by KRAS G12D mutation, immunofluorescence assay in AsPC-1 cells; assay type: cell-based; details: Homo sapiens, ASPC1, 3 h drug treatment, pERK (Thr202/Tyr204) signal normalized to DAPI
Description: Test Example 2: Measurement of Inhibitory Activity Against ERK Phosphorylation (pERK) Induced by KRAS G12D Mutation (Immunofluorescence Assay)
Immunofluorescence is a method used to detect specific substances within cells or tissues through antigen-antibody interactions, and allows for the identification of the presence or absence of specific proteins by using antibodies labeled with various fluorescent dyes. After a primary antibody that recognizes a specific protein selectively binds to the epitope, a fluorescent antibody (secondary antibody) is bound to the primary antibody.
It was confirmed as follows that the compounds according to an embodiment of the present application inhibit phosphorylation of extracellular signal-regulated kinases (Phospho-ERK, pERK) induced by KRAS G12D mutation.
AsPC-1 cells were seeded at a density of 10,000 cells/well in RPMI-1640 medium containing 10% FBS and 1% Penicillin-Streptomycin in 384-well plates (Perkinelmer, #6057300) and allowed to attach for 16 h. After the cells attached to the plate, the cells were treated with drugs at a maximum concentration of 10 μM with a 3-fold serial dilution. After 3 h of drug treatment, the medium was removed and the cells were treated with 50 μL of 4% formaldehyde (Biosesang, #PC2031-050-00) for 20 min and washed three times with 50 μL of phosphate buffered saline (PBS).
50 μL of PBS containing 0.3% Triton X-100 (Sigma, #T8787-250 mL) was added and reacted for 20 minutes to allow antibody penetration into cells, and then the plate was washed three times with 50 μL of PBS. To block nonspecific binding of antibodies to the plate, 50 μL of PBS containing 2% BSA (sigma, #A7906-500G) and 0.01% Tween-20 (Sigma, #P1379-500 mL) (hereinafter referred to as PBS-T) was added, and reacted at room temperature for 2 hours.
To detect pERK, the primary antibody (cell signaling, #9101) was diluted 1:500 in PBS-T containing 2% BSA, 50 μL was added, and the plate was stored in a refrigerator at 4° C. for 16 hours to react, followed by washing three times with 50 μL of PBS-T. To visualize the primary antibody, the secondary antibody, i.e., anti-rabbit-Alexa Fluor 488 (ThermoFisher, #A11008), was diluted 1:1000 in PBS-T containing 2% BSA, 50 μL was added, and after reaction at room temperature for 1 hour, the plate was washed three times with 50 μL of PBS-T. Next, to visualize the nuclei of cells, DAPI (Thermofisher, #62248, 1 mg/mL) was diluted 1:1000 in PBS-T, 50 μL each was added, reacted at room temperature for 10 minutes, and washed three times with 50 μL of PBS-T. 50 μL of PBS-T was added to each well, and the plate was read for fluorescence value using HCS equipment (MOLECULAR DEVICES/ImageXpress Micro).
Data analysis was performed by normalizing the pERK (Thr202/Tyr204) signal to the DAPI signal and calculating the percentage relative to the DMSO as a control. The IC50 value was determined by fitting a four-parameter dose-response curve using the GraphPad Prism software (version 8.4.3), and interpolating the concentration at which 50% inhibition occurred. The results of calculating the inhibitory efficacy of the compounds according to one embodiment of the present application against KRAS G12D mutation-induced pERK activity are shown in Table 3.

[4] = system: KRAS G12D mutant pancreatic cancer cell line AsPC-1; assay: Cell viability assay using KRAS G12D mutant cells (AsPC-1, 3D culture, celltiter-glo 3D); assay type: cell-based; details: Homo sapiens, ASPC1, 5th day after compound treatment
Method: Test Example 3: Cell Viability Assay Using KRAS G12D Mutant Cells
The KRAS G12D mutant pancreatic cancer cell line AsPC-1 was obtained from the Korean Cell Line Bank (KCLB) and maintained in 100-mm dishes or T75 (75 cm^2) flasks using RPM11640+10% fetal bovine serum (FBS)+1% Penicillin-Streptomycin medium. The cells were cultured at 37° C. with 5% CO2. The number of viable cells was counted using Countess (Invitrogen).
When AsPC-1 cells reached 85-100% confluence in the flask, the cells were harvested using 1× trypsin/EDTA solution, and seeded into a 96-well plate for 3D culture at 1000 cells/100 μL/well. The next day, the compounds were diluted ⅕ with DMSO from 10 μM or 50 μM to 0.0001 μM or 0.0006 μM and treated 1:1 (v/v) in the plate where the cells were seeded.
Cell culture was terminated on the 5th day after compound treatment, and cell viability at each concentration was measured using the celltiter-glo 3D cell viability assay kit.
Cell viability assays were normalized to 100% for the DMSO-treated group and expressed as a percentage of the number of viable cells when treated with the compound.
Cell viability %=(average RLU of group treated with test substance−average RLU of untreated group)/(average RLU of group treated with DMSO−average RLU of untreated group)×100
The data were modeled using GraphPad Prism 9 (GraphPad Software) by applying a nonlinear regression curve fit with a four-parameter sigmoidal dose-response curve to determine cell viability as a function of compound concentration. The 50% inhibitory concentration (IC50) corresponds to the concentration at which the curve intersects the midpoint of cell viability. The results of the inhibitory effect of the compounds according to one embodiment of the present application on the viability of KRAS G12D mutant cells are presented in Table 4.

Compound	GDP-KRAS G12D (ΔTmD, ° C.) [1] [°C]	GppNHp-KRAS G12D (ΔTmD, ° C.) [2] [°C]	IC50 [3] [µM]	IC50 [4] [µM]
Cc1cc2c(o1)c(-c1cc(O)cc3ccccc13)c(F)c1nc(OC[C@@]34CCCN3C[C@H](F)C4)nc(N3C[C@H]4CC[C@@H](C3)N4)c12 [Example 43, 4-(1-((1R,5S)-3,8-diazabicyclo[3.2.1]octan-3-yl)-5-fluoro-3-(((2R,7aS)-2-fluorotetrahydro-1H-pyrrolizin-7a(5H)-yl)methoxy)-8-methylfuro[3,2-f]quinazolin-6-yl)naphthalen-2-ol]	9.30	4.27	0.953	
Cc1cc2c(o1)c(-c1ccc(F)c3sc(N)c(C#N)c13)c(F)c1nc(OC[C@@]34CCCN3C[C@H](F)C4)nc(N3C[C@H]4CC[C@@H](C3)N4)c12 [Example 62, 4-(1-((1R,5S)-3,8-diazabicyclo[3.2.1]octan-3-yl)-5-fluoro-3-(((2R,7aS)-2-fluorotetrahydro-1H-pyrrolizin-7a(5H)-yl)methoxy)-8-methylfuro[3,2-f]quinazolin-6-yl)-2-amino-7-fluorobenzo[b]thiophene-3-carbonitrile]	9.01	8.57	0.631	
Cc1cc2c(o1)c(-c1ccc(F)c3sc(N)c(C#N)c13)c(F)c1nc(OC[C@@]34CCCN3C/C(=C\F)C4)nc(N3C[C@H]4CC[C@@H](C3)N4)c12 [Example 63, 4-(1-((1R,5S)-3,8-diazabicyclo[3.2.1]octan-3-yl)-5-fluoro-3-(((S,Z)-2-(fluoromethylene)tetrahydro-1H-pyrrolizin-7a(5H)-yl)methoxy)-8-methylfuro[3,2-f]quinazolin-6-yl)-2-amino-7-fluorobenzo[b]thiophene-3-carbonitrile]	8.72	9.02	0.532	
C#Cc1c(F)ccc2cc(O)cc(-c3c(F)c4nc(OC[C@@]56CCCN5C/C(=C\F)C6)nc(N5C[C@H]6CC[C@@H](C5)N6)c4c4cc(C)oc34)c12 [Example 64, 4-(1-((1R,5S)-3,8-diazabicyclo[3.2.1]octan-3-yl)-5-fluoro-3-(((S,Z)-2-(fluoromethylene)tetrahydro-1H-pyrrolizin-7a(5H)-yl)methoxy)-8-methylfuro[3,2-n]quinazolin-6-yl)-5-ethynyl-6-fluoronaphthalen-2-ol]	15.24	11.39	0.062	
Cn1cc2c(n1)c(-c1cc(O)cc3ccccc13)cc1nc(OC[C@@]34CCCN3C[C@H](F)C4)nc(N3C[C@H]4CC[C@@H](C3)N4)c12 [Example 68, 4-(9-((1R,5S)-3,8-diazabicyclo[3.2.1]octan-3-yl)-7-(((2R,7aS)-2-fluorotetrahydro-1H-pyrrolizin-7a(5H)-yl)methoxy)-2-methyl-2H-pyrazolo[4,3-f]quinazolin-4-yl)naphthalen-2-ol]	5.75	1.90	9.02	
Cn1cc2c(n1)c(-c1cc(O)cc3ccc(F)c(F)c13)cc1nc(OC[C@@]34CCCN3C[C@H](F)C4)nc(N3C[C@H]4CC[C@@H](C3)N4)c12 [Example 70, 4-(9-((1R,5S)-3,8-diazabicyclo[3.2.1]octan-3-yl)-7-(((2R,7aS)-2-fluorotetrahydro-1H-pyrrolizin-7a(5H)-yl)methoxy)-2-methyl-2H-pyrazolo[4,3-f]quinazolin-4-yl)-5,6-difluoronaphthalen-2-ol]	6.34	3.38	0.735	
C#Cc1c(F)ccc2cc(N)cc(-c3cc4nc(OC[C@@]56CCCN5C[C@H](F)C6)nc(N5C[C@H]6CC[C@@H](C5)N6)c4c4cn(C)nc34)c12 [Example 71, 4-(9-((1R,5S)-3,8-diazabicyclo[3.2.1]octan-3-yl)-7-(((2R,7aS)-2-fluorotetrahydro-1H-pyrrolizin-7a(5H)-yl)methoxy)-2-methyl-2H-pyrazolo[4,3-f]quinazolin-4-yl)-5-ethynyl-6-fluoronaphthalen-2-amine]	8.14	4.88	0.512	
CCc1c(F)ccc2cc(O)cc(-c3cc4nc(OC[C@@]56CCCN5C[C@H](F)C6)nc(N5C[C@H]6CC[C@@H](C5)N6)c4c4cn(C)nc34)c12 [Example 83, 4-(9-((1R,5S)-3,8-diazabicyclo[3.2.1]octan-3-yl)-7-(((2R,7aS)-2-fluorotetrahydro-1H-pyrrolizin-7a(5H)-yl)methoxy)-2-methyl-2H-pyrazolo[4,3-f]quinazolin-4-yl)-5-ethyl-6-fluoronaphthalen-2-ol]	10.06	5.76	0.1	
CCc1c(F)ccc2cc(O)cc(-c3c(F)c4nc(OC[C@@]56CCCN5CC(=C(F)F)C6)nc(N5C[C@H]6CC[C@@H](C5)N6)c4c4cn(C)nc34)c12 [Example 97, 4-(9-((1R,5S)-3,8-diazabicyclo[3.2.1]octan-3-yl)-7-(((S)-2-(difluoromethylene)tetrahydro-1H-pyrrolizin-7a(5H)-yl)methoxy)-5-fluoro-2-methyl-2H-pyrazolo[4,3-f]quinazolin-4-yl)-5-ethyl-6-fluoronaphthalen-2-ol]	14.20	8.42		0.007
